The test system of assay [1] is Escherichia coli (E. coli). Put plainly: Antimicrobial activity against E. coli. It counts as cell-based. The protocol: The methicillin resistant Staphylococcus aureus (MRSA) and Pseudomonas aeruginosa (PA) strains used in this study are clinical isolates obtained from an adult CF patient at the Cystic Fibrosis Clinic at the OU Children's Hospital (Oklahoma City, Okla.). Escherichia coli (E. coli) and Enterococcus faecalis (E. faecalis) were obtained from American Type Culture Collection (ATCC). The strains were grown overnight with shaking at 37° C. (220 RPM) in 15 mL of Luria-Bertani (LB) broth. The overnight culture was sub-cultured the next day before use for the MIC experiments. All sub-cultures consisted of 1 mL of the overnight culture, mixed with 10 mL of Mueller Hinton broth. The working stock of the EIPE-1 and DBI was prepared by dissolving 1 mg of each in 1 mL of DMSO.
The minimum inhibitory concentrations (MICs) were determined by the broth microdilution method, following the guidelines of the Clinical and Laboratory Standards Institute (CLSI). Two-fold serial dilutions of EIPE-1, DBI, and Arm (starting with 1 mg/mL) were prepared in a 100 μL volume in 96-well microtiter plates. The dilution series included DMSO as a negative control. […] Plates were incubated with shaking at 220 RPM at 37° C., and the MIC was determined based on the lowest concentration at which no visible growth of the bacterial isolate was observed.

Assay [2] relates to S. aureus ATCC 25923. Put plainly: MIC and MBC values (Table 2). It counts as cell-based, Staphylococcus aureus.
Assay [3] deals with Staphylococcus aureus ATCC 25923. Description: Disc agar diffusion assay. It counts as cell-based. The protocol: (§1) As a further test of an embodiment, the antibacterial properties of EIPE-1 were tested across a large panel of organisms. EIPE-1 was dissolved in DMSO, impregnated onto sterile filter paper disks, and DMSO served as the untreated control according to the following procedure: • 1. Prepare a 2.5 μg/μL stock solution of EIPE-1 by micro pipetting 200 μL of DMSO into 2.0 mL Eppendorf Tube containing 0.5 mg of EIPE-1. Dissolve with vortex agitation and store at 4° C. • 2. Use forceps to pick up sterile 6.0 mm blank paper disks. Make sure to touch only one side of disc as lightly as possible. […] Lean the impregnated disc up against the side of a small sterile glass petri dish. Follow same procedure for DMSO control. Allow disks several hours to dry under flowing sterile air. • 3. Inoculate starter cultures using cells from working culture cultivated on Mueller-Hinton Agar (MHA; Difco Laboratories). Starters consist of ˜20 mL of Mueller-Hinton Broth (MHB; Difco Laboratories) in 125-mL culture flasks. Incubate starter cultures in an Excella E24 Benchtop Incubator Shaker (New Brunswick Scientific Co., Inc., Edison, N.J., USA) at 37° C. and 180 rpm for 15-18 hours. • 4. Pour at least 5.0 mL of NMB into 18-mL Kimax tubes. Use a Pasteur pipette to deliver enough of the starter culture cell suspension to reach an optical density (OD620) of 0.025 (Spectronic™ 20 optical spectrophotometer; Thermo Electron Corp., Madison, Wis., USA). Ensure that both transmittance and absorbance are set to 0.0 using a blank NMB sample. Incubate in rotary shaking incubator at 37° C. and 180 rpm until optical density reaches 0.1. • 5. Deliver 100 μL of test culture to the middle of a small 100 mm×15 mm Petri dish containing ˜⅛ in thickness of MHA. • 6. Saturate a sterile cotton swab with MHB by dipping the cotton swab into KIMAX® tube with MHB and then touch the swab to the north, south, east, and west side of the KIMAX® tube to remove excess broth. • 7. Streak the inoculum as follows: • a. Start in the center and make four straight lines to the 12, 3, 6, and 9 o'clock position on the petri dish. • b. Start at the 12 o'clock position and streak side to side all the way down the plate to the 6 o'clock position. […] Rotate the petri dish 90° and complete the same side to side streak all the way down the petri dish. • d. Complete step c. twice more. • e. Rotate petri dish 45° and complete the side-to-side streak. • f. Rotate petri dish 90° and complete the side-to-side streak. • 8. Use sterile forceps to transfer the DMSO control paper disc onto the agar surface and pat the paper disc down to ensure flush contact. Use the same technique to deliver EIPE-1 paper disc. • 9. Place petri dish at 4° C. for 1.0 hour to allow EIPE-1 diffusion in the absence of growth. • 10. Incubate petri dish at 37° C. for 18 hours. • 11. Observe for zones of growth inhibition surrounding disks. Measure diameter with electronic caliper and subtract 6.0-mm disc diameter. Results • a) Each organism was initially tested once to serve as a screen.
On the technique in general: Agar diffusion results depend on both activity and mobility in agar.

In assay [4] the test system is Bacillus subtilis ATCC 6633. Put plainly: Disc agar diffusion assay. Type of assay: cell-based. The protocol: as §1
For assay [5], the system named is S. aureus SFL64. Description: MIC and MBC values (Table 2). It counts as cell-based, Staphylococcus aureus. To be noted: repeated determinations.
The mark [6] stands for this setting: Group 3: Gram-positive organisms.

Like-named read-outs stand apart in the source and are kept apart here.

Regarding `COC(=O)c1cc2c(C#Cc3ccc(OCCC[N+](C)(C)C)cc3)c(OC)c(OC)c(C#Cc3ccc(OCCC[N+](C)(C)C)cc3)c2n1C` [EIPE-1, 3,3′-((((5,6-dimethoxy-2-(methoxycarbonyl)-1-methyl-1H-indole-4,7-diyl)bis(ethyne-2,1-diyl))bis(4,1-phenylene))bis(oxy))bis(N,N,N-trimethylpropan-1-aminium) iodide], in assay [1], the “activity against E. coli” value is on record as “did not display any activity”. In assay [2] (Staphylococcus aureus, ATCC25923, repeated determinations), this compound displayed an MBC of 2 µg/mL. For the same compound, the minimum inhibitory concentration (MIC) in assay [2] (Staphylococcus aureus, ATCC25923, repeated determinations, read-out: MIC) stood at 2 µg/mL; in assay [2] (repeated determinations), 1.000 µg/mL; in assay [5] (S. aureus SFL64), 1.000 µg/mL; in assay [5] (Staphylococcus aureus, SFL64, S. aureus SFL64, read-out: MIC), 0.5 µg/mL. The “susceptibility group in disc diffusion screen” value in assay [3] (setting [6]) and in assay [4] (setting [6]) was “susceptible” in each case. The “Inhibition Zone Diameter (mm) ± SD” value is reported as 1.6 ± 0.1 mm in assay [3] (S. aureus ATCC 25923, 25 μg per disk, zone minus disk diameter (6.0mm)); 3.1 ± 0.2 mm in assay [3] (S. aureus ATCC 25923, 50 μg per disk, zone minus disk diameter (6.0mm)); 1.1 ± 0.2 mm in assay [4] (B. subtilis ATCC 6633, 25 μg per disk, zone minus disk diameter (6.0mm)); 3.3 ± 0.1 mm in assay [4] (B. subtilis ATCC 6633, 50 μg per disk, zone minus disk diameter (6.0mm)). For the same compound, the zone of inhibition at 25 µg/disc in assay [3] (Staphylococcus aureus, ATCC25923, S. aureus ATCC 25923, 25 μg per disk, zone minus disk diameter (6.0mm), read-out: Inhibition Zone Diameter (mm) ± SD) amounted to 1.6 mm; in assay [4] (Bacillus subtilis, ATCC6633, B. subtilis ATCC 6633, 25 μg per disk, zone minus disk diameter (6.0mm), read-out: Inhibition Zone Diameter (mm) ± SD), 1.1 mm. Also, the zone of inhibition at 50 µg/disc in assay [3] (Staphylococcus aureus, ATCC25923, S. aureus ATCC 25923, 50 μg per disk, zone minus disk diameter (6.0mm), read-out: Inhibition Zone Diameter (mm) ± SD) amounted to 3.1 mm; in assay [4] (Bacillus subtilis, ATCC6633, B. subtilis ATCC 6633, 50 μg per disk, zone minus disk diameter (6.0mm), read-out: Inhibition Zone Diameter (mm) ± SD), 3.3 mm. The zone of inhibition at 250 µg/disc in assay [3] (Staphylococcus aureus, ATCC25923, S. aureus ATCC 25923, 250 μg per disk, zone minus disk diameter (6.0mm), read-out: Inhibition Zone Diameter (mm) ± SD) was 2.3 ± 0.2 mm; in assay [4] (Bacillus subtilis, ATCC6633, B. subtilis ATCC 6633, 250 μg per disk, zone minus disk diameter (6.0mm), read-out: Inhibition Zone Diameter (mm) ± SD), 1.8 ± 0.3 mm.

What is called MBC is the lowest tested concentration that kills the bacteria rather than only halting them. Read a low MBC as greater bactericidal potency. The MIC is the lowest concentration found to suppress growth.

The record behind these values is patent publication US11730717B1, “Melanin-inspired antimicrobial” (The Board of Regents for the Oklahoma Agricultural and …, priority 2020, dated 2023).
